Experiment [1] deals with MDA-MB-231. Kind of experiment: Induction of apoptosis in human MDA-MB-231 cells assessed as necrotic cells at 10 uM measured after 24 hrs by Annexin-V/propidium iodide staining based flow cytometry (reference value: 0.22 to 0.46%). It is filed as functional.
Experiment [2] concerns MDA-MB-231. Kind of experiment: Induction of endoplasmic reticulum stress in human MDA-MB-231 cells assessed as increase in PERK expression at 2.5 to 10 uM measured after 24 hrs by DAPI staining based immunofluorescence assay. The class given is functional, cell-based. Conditions: dose 2.5-10 µM.
Experiment [3] has as its system MDA-MB-231. The experiment can be described thus: Induction of apoptosis in human MDA-MB-231 cells assessed as early apoptotic cells at 5 uM measured after 24 hrs by Annexin-V/propidium iodide staining based flow cytometry (reference value: 0.69 to 0.92%). It is filed as functional.
In experiment [4] the target is Histone deacetylase 4 (Homo sapiens, UniProt P56524). Kind of experiment: Inhibition of recombinant human N-terminal GST-tagged HDAC4 (627 to end residues) expressed in baculovirus infected Sf9 insect cells using AcLeu-Gly-Lys(Tfa)-AMC as substrate measured after 30 mins by fluorescence assay.
Experiment [5] deals with MDA-MB-231. The experiment can be described thus: Induction of apoptosis in human MDA-MB-231 cells assessed as increase in cleaved caspase-8 expression at 2.5 to 10 uM measured after 24 hrs by Western blot analysis. Conditions: dose 2.5-10 µM. It is filed as functional, cell-based.
For experiment [6], the target named is T1, Protein deacetylase HDAC6 (Homo sapiens, UniProt Q9UBN7).
T1 sequence (Q9UBN7 whole entry): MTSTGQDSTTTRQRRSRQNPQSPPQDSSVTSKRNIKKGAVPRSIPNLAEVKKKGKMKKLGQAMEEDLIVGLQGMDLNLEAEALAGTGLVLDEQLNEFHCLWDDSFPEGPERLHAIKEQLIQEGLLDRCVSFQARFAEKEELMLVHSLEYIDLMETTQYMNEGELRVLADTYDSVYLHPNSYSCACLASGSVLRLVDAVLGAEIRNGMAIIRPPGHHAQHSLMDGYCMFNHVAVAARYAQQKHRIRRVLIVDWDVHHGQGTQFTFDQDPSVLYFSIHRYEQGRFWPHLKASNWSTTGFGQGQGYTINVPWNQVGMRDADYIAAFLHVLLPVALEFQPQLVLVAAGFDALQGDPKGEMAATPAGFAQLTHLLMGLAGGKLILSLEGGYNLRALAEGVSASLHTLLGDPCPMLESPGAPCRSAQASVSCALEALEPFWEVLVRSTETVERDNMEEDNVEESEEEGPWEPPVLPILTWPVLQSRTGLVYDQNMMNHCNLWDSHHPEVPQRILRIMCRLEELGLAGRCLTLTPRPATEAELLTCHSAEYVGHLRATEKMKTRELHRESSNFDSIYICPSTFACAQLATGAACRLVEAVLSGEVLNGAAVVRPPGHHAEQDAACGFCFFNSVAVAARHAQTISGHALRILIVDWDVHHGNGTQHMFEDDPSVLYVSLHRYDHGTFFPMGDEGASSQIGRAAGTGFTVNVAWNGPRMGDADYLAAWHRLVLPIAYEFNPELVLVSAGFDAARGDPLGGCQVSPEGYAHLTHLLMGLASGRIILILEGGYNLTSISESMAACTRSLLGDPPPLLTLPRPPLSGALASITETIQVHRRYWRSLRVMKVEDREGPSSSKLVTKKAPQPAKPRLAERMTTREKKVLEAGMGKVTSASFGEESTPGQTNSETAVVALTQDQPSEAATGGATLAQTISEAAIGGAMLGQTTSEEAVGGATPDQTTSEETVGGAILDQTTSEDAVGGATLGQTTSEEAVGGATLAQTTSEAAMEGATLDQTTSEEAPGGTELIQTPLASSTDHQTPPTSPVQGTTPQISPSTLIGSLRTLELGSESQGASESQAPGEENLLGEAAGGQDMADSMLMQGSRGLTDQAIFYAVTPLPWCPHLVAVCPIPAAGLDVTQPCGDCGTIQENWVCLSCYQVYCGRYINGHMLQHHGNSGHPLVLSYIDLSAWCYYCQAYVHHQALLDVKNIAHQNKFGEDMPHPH
The experiment can be described thus: Inhibition of recombinant human His-tagged HDAC6 expressed in baculovirus infected insect cells using Ac-Leu-Gly-Lys(Ac)-AMC as substrate measured after 30 mins by fluorescence assay.

For experiment [7], the system named is MDA-MB-231. Kind of experiment: Induction of apoptosis in human MDA-MB-231 cells assessed as late apoptotic cells at 2.5 uM measured after 24 hrs by Annexin-V/propidium iodide staining based flow cytometry (reference value: 0.71 to 2.94%). It is filed as functional.
Experiment [8] concerns the target T2, Histone deacetylase 11 (Homo sapiens, UniProt Q96DB2).
T2 sequence (Q96DB2 whole entry): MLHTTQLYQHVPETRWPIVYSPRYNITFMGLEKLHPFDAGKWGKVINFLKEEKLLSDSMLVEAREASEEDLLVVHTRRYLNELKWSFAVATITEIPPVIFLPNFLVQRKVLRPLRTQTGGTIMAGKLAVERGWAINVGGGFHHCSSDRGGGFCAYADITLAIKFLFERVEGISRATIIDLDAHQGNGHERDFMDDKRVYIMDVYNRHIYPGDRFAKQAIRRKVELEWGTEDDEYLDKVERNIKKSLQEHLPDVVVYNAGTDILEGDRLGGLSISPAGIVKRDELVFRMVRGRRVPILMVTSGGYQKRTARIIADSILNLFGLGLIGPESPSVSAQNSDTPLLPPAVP
Kind of experiment: Inhibition of recombinant human N-terminal His-tagged HDAC11 expressed in baculovirus infected Sf9 insect cells using Ac-Arg-His-Lys(Ac)-Lys(Ac)-AMC as substrate measured after 30 mins by fluorescence assay.

In experiment [9] the test system is MDA-MB-231. The experiment can be described thus: Inhibition of cell migration in human MDA-MB-231 cells assessed as decrease in MMP2 expression at 2.5 to 10 uM measured after 24 hrs Western blot analysis. To be noted: dose 2.5-10 µM. The class given is functional, cell-based.
Experiment [10] deals with Histone deacetylase 5 (Homo sapiens, UniProt Q9UQL6). The experiment can be described thus: Inhibition of recombinant human full-length N-terminal GST-tagged HDAC5 expressed in baculovirus infected Sf9 insect cells using AcLeu-Gly-Lys(Tfa)-AMC as substrate measured after 30 mins by fluorescence assay.
The test system of experiment [11] is MDA-MB-231. Kind of experiment: Induction of apoptosis in human MDA-MB-231 cells assessed as necrotic cells at 2.5 uM measured after 24 hrs by Annexin-V/propidium iodide staining based flow cytometry (reference value: 0.22 to 0.46%). It is filed as functional.
The subject of experiment [12] is MDA-MB-231. Kind of experiment: Antiproliferative activity against human MDA-MB-231 cells measured after 24 hrs by MTT assay. The class given is functional, cell-based. To be noted: MDA-MB-231, 24 h.
The subject of experiment [13] is MDA-MB-231. Kind of experiment: Inhibition of cell migration in human MDA-MB-231 cells at 2.5 to 10 uM measured after 24 hrs using crystal violet staining by phase-contrast microscopy based transwell assay. To be noted: dose 2.5-10 µM. It is filed as functional.
Experiment [14] relates to MDA-MB-231. Kind of experiment: Induction of autophagy in human MDA-MB-231 cells assessed as increase in LC3II expression at 2.5 to 10 uM measured after 24 hrs by Western blot analysis. The class given is functional, cell-based. Conditions: dose 2.5-10 µM.
Experiment [15] deals with MDA-MB-231. The experiment can be described thus: Induction of apoptosis in human MDA-MB-231 cells assessed as increase in DNA fragmentation at 2.5 to 10 uM measured after 24 hrs by Hoechst 33258 staining based immunofluorescence assay. It is filed as functional, cell-based. Conditions: dose 2.5-10 µM.
The target in experiment [16] is Histone deacetylase 2 (Homo sapiens, UniProt Q92769). Kind of experiment: Inhibition of human full-length C-terminal FLAG-tagged HDAC2 expressed in baculovirus infected Sf9 insect cells using Ac-Leu-Gly-Lys(Ac)-AMC as substrate measured after 30 mins by fluorescence assay. It is filed as cell-based.

We go through 1 molecule from ChEMBL document CHEMBL4765420, “Design, synthesis and biological evaluation of novel HDAC inhibitors with improved pharmacokinetic profile in breast cancer” (Eur J Med Chem, 2020).

Active and inactive are the calls of the source. No cut-off for these calls is given here.

Sequence of Histone deacetylase 2 (Q92769 whole entry): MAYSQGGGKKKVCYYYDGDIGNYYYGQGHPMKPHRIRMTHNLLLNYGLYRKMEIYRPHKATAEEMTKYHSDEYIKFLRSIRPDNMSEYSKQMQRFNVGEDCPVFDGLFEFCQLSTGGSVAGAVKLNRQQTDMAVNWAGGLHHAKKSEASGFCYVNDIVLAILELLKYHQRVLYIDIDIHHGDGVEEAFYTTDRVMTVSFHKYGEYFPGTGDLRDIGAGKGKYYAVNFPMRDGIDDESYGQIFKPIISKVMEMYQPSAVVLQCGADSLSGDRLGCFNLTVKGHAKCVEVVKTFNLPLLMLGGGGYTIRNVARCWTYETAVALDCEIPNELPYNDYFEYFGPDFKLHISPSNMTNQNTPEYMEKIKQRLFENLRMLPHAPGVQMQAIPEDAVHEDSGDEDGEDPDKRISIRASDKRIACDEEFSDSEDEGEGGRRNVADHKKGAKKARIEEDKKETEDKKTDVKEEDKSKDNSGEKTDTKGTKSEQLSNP
Sequence of Histone deacetylase 5 (Q9UQL6 whole entry): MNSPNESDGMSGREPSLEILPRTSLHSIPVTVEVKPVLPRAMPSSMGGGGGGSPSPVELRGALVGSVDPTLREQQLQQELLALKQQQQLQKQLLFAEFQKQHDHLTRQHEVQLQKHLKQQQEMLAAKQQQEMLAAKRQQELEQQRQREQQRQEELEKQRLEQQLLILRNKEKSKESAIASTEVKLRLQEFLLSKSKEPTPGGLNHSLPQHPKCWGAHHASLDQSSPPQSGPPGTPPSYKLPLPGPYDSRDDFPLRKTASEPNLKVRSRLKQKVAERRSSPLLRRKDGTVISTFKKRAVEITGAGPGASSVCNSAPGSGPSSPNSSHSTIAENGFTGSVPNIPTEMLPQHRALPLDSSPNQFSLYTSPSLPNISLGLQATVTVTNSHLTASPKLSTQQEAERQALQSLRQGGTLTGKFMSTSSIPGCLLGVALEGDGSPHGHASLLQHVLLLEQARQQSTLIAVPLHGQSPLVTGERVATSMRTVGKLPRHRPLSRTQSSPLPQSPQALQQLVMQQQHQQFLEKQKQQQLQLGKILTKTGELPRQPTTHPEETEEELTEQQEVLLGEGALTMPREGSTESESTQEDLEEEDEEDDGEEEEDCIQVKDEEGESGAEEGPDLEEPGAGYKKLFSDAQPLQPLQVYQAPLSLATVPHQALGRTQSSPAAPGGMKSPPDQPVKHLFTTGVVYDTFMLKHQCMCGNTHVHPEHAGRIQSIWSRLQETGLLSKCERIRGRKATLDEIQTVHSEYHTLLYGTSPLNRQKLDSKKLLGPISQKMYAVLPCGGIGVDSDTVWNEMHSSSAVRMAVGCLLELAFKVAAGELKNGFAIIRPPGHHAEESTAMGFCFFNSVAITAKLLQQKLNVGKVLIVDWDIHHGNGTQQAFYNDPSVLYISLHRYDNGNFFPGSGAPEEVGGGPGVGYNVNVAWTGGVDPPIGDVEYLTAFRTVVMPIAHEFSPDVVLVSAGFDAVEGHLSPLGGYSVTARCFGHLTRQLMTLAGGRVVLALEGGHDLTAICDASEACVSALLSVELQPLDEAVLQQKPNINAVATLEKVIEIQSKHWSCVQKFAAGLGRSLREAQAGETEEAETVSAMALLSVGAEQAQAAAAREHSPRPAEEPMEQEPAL
Sequence of Histone deacetylase 4 (P56524 whole entry): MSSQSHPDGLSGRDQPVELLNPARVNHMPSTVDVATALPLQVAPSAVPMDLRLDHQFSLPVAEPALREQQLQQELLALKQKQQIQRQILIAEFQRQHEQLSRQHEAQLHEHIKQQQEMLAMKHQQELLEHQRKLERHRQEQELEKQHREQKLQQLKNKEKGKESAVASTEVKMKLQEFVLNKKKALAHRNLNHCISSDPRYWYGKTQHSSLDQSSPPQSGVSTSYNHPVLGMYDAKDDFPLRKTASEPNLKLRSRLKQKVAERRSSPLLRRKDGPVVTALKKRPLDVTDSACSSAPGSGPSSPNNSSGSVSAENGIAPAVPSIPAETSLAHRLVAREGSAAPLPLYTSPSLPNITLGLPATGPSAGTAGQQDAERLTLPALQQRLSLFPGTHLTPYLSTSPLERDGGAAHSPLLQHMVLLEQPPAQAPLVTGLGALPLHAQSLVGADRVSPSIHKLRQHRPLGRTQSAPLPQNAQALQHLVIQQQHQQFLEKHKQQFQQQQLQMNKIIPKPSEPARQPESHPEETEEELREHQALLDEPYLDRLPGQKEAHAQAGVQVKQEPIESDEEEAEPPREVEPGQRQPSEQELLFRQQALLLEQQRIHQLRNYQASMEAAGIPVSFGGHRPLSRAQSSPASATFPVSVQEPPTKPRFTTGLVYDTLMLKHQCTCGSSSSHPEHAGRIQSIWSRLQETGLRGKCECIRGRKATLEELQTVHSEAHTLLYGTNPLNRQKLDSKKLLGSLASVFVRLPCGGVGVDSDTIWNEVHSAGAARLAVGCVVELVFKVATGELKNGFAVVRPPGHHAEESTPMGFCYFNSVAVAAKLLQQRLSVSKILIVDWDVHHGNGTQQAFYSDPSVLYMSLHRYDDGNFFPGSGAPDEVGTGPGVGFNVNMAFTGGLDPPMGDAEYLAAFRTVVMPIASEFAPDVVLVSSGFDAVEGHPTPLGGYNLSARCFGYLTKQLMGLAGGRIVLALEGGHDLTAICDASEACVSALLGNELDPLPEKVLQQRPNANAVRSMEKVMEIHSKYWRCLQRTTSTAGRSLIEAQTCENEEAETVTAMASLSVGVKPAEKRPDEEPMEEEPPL

As to `COc1cc(OC)c2c(N3CCS(=O)(=O)CC3)nc(-c3cc(C)c(OCCCCCC(=O)NO)c(C)c3)nc2c1`, the Activity was determined as 0.26% in experiment [1], 16.28% in [3], 3.01% in experiment [7] and 1.05% in experiment [11]. Besides, the result in experiment [2], in experiment [5], in [9], in experiment [14] and in experiment [15] was Active. Besides, the half-inhibitory concentration (IC50) in experiment [4] is more than 1000 nM; in experiment [6], 55.3 nM; in experiment [8] it was more than 1000 nM; in experiment [10], 688 nM; in experiment [12], 2370 nM; in [16], 136 nM. For the same molecule, the inhibition result in experiment [13] was “Active”.
